Assays:
[1] = system: A549 human lung cancer cell line; test: MTT assay, cancer cells A549; type: cell-based; conditions: MTT assay, 48 hours, A549
Description: (§1) The cytotoxicity against normal cells and cancer cells was confirmed using the MTT assay for the novel compounds KP2 to KP8 prepared in Example 1.
(§2) MTT assay method is as follows:
(§3) Normal cells (RAW264.7 rat macrophage cell line (osteoblast progenitor cell) and NIH3T3 mouse fibroblast line) and cancer cells (AGS human gastric cancer cell line, A549 human lung cancer cell line, HepG2 human liver cancer cell line, HCT116 human colon cancer cell line, PC3 human prostate cancer Cell line, Caki-1 human kidney cancer cell line, T24 human bladder cancer cell line, HT1080 human fibrosarcoma cell line, B16F10 mouse melanoma cell line) were cultured in 5% CO2 in 96-well plates containing DMEM with 10% FBS (fetal bovine serum). After incubation, KP2 to KP8 and controls (osmundacetone and 4-hydroxybenzalacetone) were added to the cell medium and incubated for 48 hours. Thereafter, 100 μl of MTT (0.5 mg/mL phosphate buffered saline) was added, followed by incubation for 2 hours. 100 μl of DMSO was added to each well, followed by incubation for 10 minutes, and the absorbance was measured at 550 nm using a microplate reader (SPCTRA MAX 340PC, Molecular Devices, USA). Absorbance is calculated by the formula below as an indicator of the number of cells that survived, and reproducibility was confirmed by three experiments.
(§4) The rate of cell proliferation (%)=OD550(sample)/OD550(control)

[2] = system: Caki-1 human kidney cancer cell line; test: MTT assay, cancer cells Caki-1; type: cell-based; conditions: 48 hours
Description: as §1, §2, §3, §4

[3] = system: PC3 human prostate cancer Cell line; test: MTT assay, cancer cells PC3; type: cell-based; conditions: 48 hours
Description: as §1, §2, §3, §4

[4] = system: HepG2 human liver cancer cell line; test: MTT assay, cancer cells HepG2; type: cell-based; conditions: MTT assay, 48 hours, HepG2
Description: as §1, §2, §3, §4

[5] = system: NIH3T3 mouse fibroblast line; test: MTT assay, normal cells NIH3T3; type: cell-based; conditions: mouse, 48 h
Description: as §1, §2, §3, §4

[6] = system: RAW264.7 rat macrophage cell line; test: MTT assay, normal cells RAW264.7; type: cell-based; conditions: rat, 48 h
Description: as §1, §2, §3, §4

[7] = system: T24 human bladder cancer cell line; test: MTT assay, cancer cells T24; type: cell-based; conditions: for LD63 Cancer cell T24: MTT assay, 48 hours
Description: as §1, §2, §3, §4

[8] = system: B16F10 mouse melanoma cell line; test: MTT assay, cancer cells B16F10; type: cell-based; conditions: 48 hours, H16F10
Description: as §1, §2, §3, §4

[9] = system: HCT116 human colon cancer cell line; test: MTT assay, cancer cells HCT116; type: cell-based; conditions: for LD63 Cancer cell HCT116: MTT assay, 48 hours
Description: as §1, §2, §3, §4

[10] = system: HT1080 human fibrosarcoma cell line; test: MTT assay, cancer cells HT1080; type: cell-based; conditions: 48 hours
Description: as §1, §2, §3, §4

[11] = system: AGS human gastric cancer cell line; test: MTT assay, cancer cells AGS; type: cell-based; conditions: 48 hours
Description: as §1, §2, §3, §4

[12] = system: osteoclast differentiation from bone marrow cells (RANKL and M-CSF); test: TRAP assay, osteoclast differentiation and proliferation; type: cell-based, C57BL/6 mice; conditions: Osteoclast; TRAP-positive multinucleated cells, mouse bone marrow cells, 6-7 days; read-out: osteoclast differentiation inhibitory activity IC50
Procedure: The specific method of the TRAP assay is as follows:
The tibia and femur were aseptically excised from 6 to 8 weeks old male C57BL/6 mice, and bone marrow cells were collected aseptically with a syringe (21G, Korea Green Cross). Bone marrow cells were suspended in 500 μl of -MEM medium (Gibco BRL Co.) containing sodium bicarbonate (2.0 g/L), streptomycin (100 mg/L) and penicillin ([…]), and aliquoted into a 48-well plate, and assay was carried out with triplicate. The progenitor cells of osteoclasts, monocytes, were isolated and treated with RANKL and M-CSF, which are differentiation promoters, to differentiate into osteoclasts within 5-7 days.
1) Sample preparation: KP2 to KP8 (0.5 μM, 1 μM, 5 μM or 10 μM), Fosamax (0.5 μM, 1 μM, 5 μM, or 10 μM) and the like were dissolved in DMSO (dimethylsulfoxide) or sterile distilled water at appropriate concentrations, respectively.
2) Sample administration: The Samples were continuously administered to the medium at 1:20 (v/v; 25 μL of sample per 500 μL of medium) from the first day of culture of bone marrow cells, and the medium was replaced at 3 days intervals.
3) Osteoclast differentiation measurement: Osteoclasts were defined as TRAP-positive multinucleated cells stained with TRAP. […] The reaction reagents were stored in the refrigerator until use.
Bone marrow cells were cultured in a medium containing differentiation factors for 6-7 days, and then the medium was removed, washed with PBS, and fixed in PBS containing 10% formalin for 2-5 minutes. After fixed for 1 minute with a 1:1 mixture of ethanol and acetone, and dried. The fixed cells were treated with TRAP staining solution for 60 minutes at 37° C. with light blocking, washed with PBS, and then stained with Hematoxylin.
Among the TRAP-positive cells in the microscope field, cells with two or more nuclei were determined as osteoclasts and the number of cells was measured.

[13] = system: osteoblasts (mouse MC3T3-E1); test: ALP (Alkaline phosphatase) assay, osteoblast activity; type: cell-based; conditions: for % Activation of ALP activity: MC3T3-E1, 14 days, percentage against control
Procedure: Effect of KP4 to KP6 on proliferation and differentiation of osteoblast were confirmed using ALP (Alkaline phosphatase) assay, a method for measuring osteoblast activity.
Alkaline phosphatase (ALP), which is present in the cell membranes of osteoblasts, is known as a marker of osteoblast activity and is a regulator of inorganic phosphate transport, cell division or differentiation during calcification. Therefore, ALP activity was measured to determine the effect of the compounds of the present invention on the activity of osteoblasts. ALP activity was indirectly calculated by measuring the amount of p-nitrophenol, which is produced from hydrolysis of p-nitrophenyl phosphate (pNPP, Sigma, St. Louis, Mo., USA) in which ALP act as a catalyst, using a microplate reader at 405 nm wavelength.
Specifically, osteoblasts (mouse MC3T3-E1) were aliquoted into a 96-well plate (3×10^3 cells/100 μL/well) with α-MEM medium containing ascorbic acid (50 μg/mL) and 10 mM β-glycerophosphate, a differentiation factors of osteoblast. Then, KP4 to KP6 of the present invention, and osmundacetone were added at a final concentration of 10 μM and 50 μM, followed by changing medium every 72 hours and incubating for 14 days. After 14 days, the culture medium was removed from each well, washed three times with PBS, lysed with 0.2% Nonidet P-40/10 mmol/L MgCl2, and then treated ultrasonic wave with sosonifier cell disrupter (Model W-380, Heat Systems-Ultrasonics Inc., Farmingdale, N.Y.) for 3 minutes. The cell lysate was centrifuged at 1500 g for 10 minutes and the supernatant was collected to measure ALP activity. To account for changes in ALP activity according to cell number differences, total protein levels were measured using bicinchoninic acid (BCA) protein assay kit with bovine serum albumin as the standard protein, and enzyme activity was expressed as a percentage against the control group without the compound treatment.

| SMILES | LD63 Cancer cell A549 [1] | LD63 Cancer cell Caki-1 [2] | LD63 Cancer cell PC3 [3] | LD63 Cancer cell HepG2 [4] | LD50 Normal cells NTH3T3 [5] | LD50 Normal cells RAW264.7 [6] | LD63 Cancer cell T24 [7] | inhibitory activity ([7]; T24 bladder cancer cells) | Cytotoxicity, B16F10 cells [8] | LD63 Cancer cell HCT116 [9] | LD63 Cancer cell HT1080 [10] | LD63 Cancer cell AGS [11] | IC50 [12] | inhibitory activity better than Osmundacetone ([9]; HP116 colorectal cancer cells) | ALP activity / osteoblast activation versus control ([13]; 10 μM and 50 μM) | % Activation of ALP activity ([13]; 10 μM) | % Activation of ALP activity ([13]; 50 μM) |
| --- | --- | --- | --- | --- | --- | --- | --- | --- | --- | --- | --- | --- | --- | --- | --- | --- | --- |
| NC(=O)/C=C/c1ccc(F)c(O)c1 [KP8, (E)-3-(4-fluoro-3-hydroxyphenyl)acrylamide] | 935 ± 10 µM | 2990 ± 58 µM | >5,000 μM | 1280 ± 390 µM | >5000 µM | >5000 µM | 203 ± 69 µM | particularly better inhibitory activity | >5,000 μM | >5,000 μM | 1090 ± 19 µM | 569 ± 4.8 µM | – | – | – | – | – |
| NCCCC(O)(P(=O)(O)O)P(=O)(O)O [Fosamax, reference compound] | – | – | – | – | – | – | – | – | – | – | – | – | 4 µM | – | – | – | – |
| CC(=O)/C=C/c1ccc(F)c(O)c1 [KP3, (E)-4-(4-fluoro-3-hydroxyphenyl)but-3-en-2-one] | 1090 ± 46 µM | 408 ± 12 µM | 387 ± 48 µM | 612 ± 95 µM | >5000 µM | 503 ± 57 µM | >5,000 μM | – | 278 ± 15 µM | 389 ± 18 µM | 379 ± 10 µM | 239 ± 14 µM | – | 2 times | – | – | – |
| CC(=O)/C=C/c1ccc(O)c(F)c1 [KP6, (E)-4-(3-fluoro-4-hydroxyphenyl)-3-buten-2-one] | 901 ± 28 µM | 449 ± 40 µM | 205 ± 13 µM | – | >5000 µM | 1110 ± 48 µM | 3610 ± 130 µM | – | 421 ± 41 µM | 490 ± 38 µM | >5,000 μM | 336 ± 3.9 µM | 6 µM | – | no activity on activating osteoblast | 102 ± 0.2% | 100 ± 0.8% |

Reference: patent US11629121B2, “Benzylideneacetone derivative and use thereof” (KORPHARM CO., LTD., priority 2017, dated 2023)
